Experimental data from US20230416247A1, “DRUG-LIKE MOLECULES AND METHODS FOR THE THERAPEUTIC TARGETING OF MICRORNA-21” (University of Washington, priority 2020, published 2023).
Entries after “also recorded” stand apart in the source; their conditions may differ.

What was measured:
pre-miR-21 = test: 1D 1H imino NMR / NOESY titration of pre-miR-21 with compound; format: binding, human; conditions: for closing of the apical loop of pre-miR-21 (new imino signals / base pairs): 1 mM pre-miR-21 titrated to 1.5 mM compound, 800 MHz, 5° C., 50 mM deuterated Tris pH 6.5, 50 mM NaCl; for binding to pre-miR-21 (NMR data): FIGS. 7A-7D
Description: All data were collected at 800 Mhz and at 5° C. in buffer containing 50 mM deuterated Tris at pH 6.5 and 50 mM NaCl.
Remarkably, the compounds have the unique capacity to ‘close the loop’ of pre-miR-21. This large change in RNA structure is shown in FIGS. 7A-7D, compared to the unbound RNA which are shown at the bottom of FIGS. 7A and 7C. […] The effect is very similar to what is observed with mutations that stabilize the loop structure by inducing stable formations of base pairs in place of unstable base pairs, and that also reduce miR-21 expression in both biochemical experiments and in cells, as reported in the literature. Accordingly, the compounds of formula (I) are specific pre-miR-21 binding compounds with the capacity to inhibit enzymatic processing of this oncogenic miRNA sequence.
RNA Transcription. All RNAs for ligand screening and structural or biochemical work were prepared in house using in vitro transcription on a large scale (typically 10 mL). RNA transcription and purification protocols used purified DNA oligonucleotide templates (IDT) and T7 RNA polymerase. Briefly, 1 mL of 8 μM TOP DNA (5′-CTATAGTGAGTCGTATTA-3′ (SEQ ID NO: 1)), corresponding to the phage T7 RNA polymerase promoter region, was annealed to 80 μL of 100 μM template sequences with 13 mM MgCl2, heated to 95° C. for […] then allowed to anneal to room temperature over 20 min. The annealing mixture was incubated with 5 mM of each of the four NTPs (ATP, GTP, UTP and CTP, from Sigma), transcription buffer, 8% PEG-8000 and 35 mM magnesium chloride with 0.4 mg/mL T7 RNA polymerase expressed and purified using established methods. All RNA samples are purified from crude transcriptions by 20% denaturing polyacrylamide gel electrophoresis (PAGE), electroeluted and concentrated by ethanol precipitation. The samples are re-dissolved in 12 mL of high salt wash (700 mM NaCl, 200 mM KCl, in 10 mM potassium phosphate at pH 6.5, with 10 μM EDTA to chelate any divalent ions), concentrated using Centriprep conical concentrators ([…] MWC, Millipore). The RNA was then slowly exchanged into low salt storage buffer (10 mM potassium phosphate at pH 6.5, with 10 mM NaCl and 10 μM EDTA). Prior to NMR experiments, all RNA samples were finally desalted using NAP-10 gravity columns, lyophilized and re-dissolved in ‘screening buffer’ or ‘structure buffer’ (see below), then annealed by heating for 4 min to 90° C. and snap cooling at −20° C.

[1] = tested on: mature miR-21 and pre-miR-21 in AGS cells; test: qRT-PCR of mature miR-21 and pre-miR-21 in AGS cells; format: cell-based, human; conditions: 10 nmoles, 48 hours, relative to DMSO control
Description: FIGS. 13A-13D compare levels of mature miR-21 and pre-mi-21 measured in gastric adenocarcinoma (AGS) (FIGS. 13A and 13B, respectively) and pancreatic cancer cell line (ASPC 1) (FIGS. 13C and 13D, respectively), normalized to internal controls (U6 or U8 snRNA), in the presence of 10 nmoles of palbociclib (used here as a negative control, not expected to affect microRNA levels) and compounds −0045 and −0052, 48 hours after incubation, relative to DMSO control, and measured by standard qRT-PCR. Statistically significant changes are labeled with asterisks.
Levels of mature miR-21 and its precursor pre-miR-21 were measured in gastric carcinoma (ASG) and pancreatic (ASPC1) cancer cell lines under conditions where we observed a decrease in proliferation (FIGS. 13A-13D), using the same blind format described above.
Cell line maintenance. Using the Cancer Cell Line Encyclopedia (CCLE), in-house cancer cell lines were screened to identify cancer and tissue types with varying levels of miR-21 expression. Experiments were performed using the human-derived cell lines AGS (gastric cancer) and AsPC-1 (pancreatic cancer). Cell lines were obtained from the American Type Culture Collection and maintained per instructions from the supplier. AGS were cultured in F12K medium supplemented with 10% FBS. AsPC-1 were cultured in RPMI, with 10% FBS added. All cells were kept at 37° C. in a humidified atmosphere of 5% CO2 and underwent regular mycoplasma testing. All experiments were conducted when cells were 70-80% confluent.
Quantitative real time PCR analysis. RNA was isolated utilizing Trizol (Invitrogen) and the Direct-zol RNA Miniprep kit (Zymo Research). RNA concentration was assessed with the NanoDrop ND-1000 spectrophotometer (ThermoFisher Scientific). All microRNAs expression was tested in the two representative cell lines using qRT-PCR. Cells were seeded in 6-well plates 24 hours before treatment, at a cell confluency of 50-60%. Each cell line was treated with 10 μM compound or with only the dimethyl sulfoxide (DMSO) solvent. RNA was collected after the 48-hour time point. Expression of miR-21 was assessed utilizing the TaqMan microRNA assay (Applied Biosystems). The complementary DNA (cDNA) was synthesized using the TaqMan Reverse Transcription Reagents kit (Applied Biosystems) and was used with the TaqMan probes and Supermix (BioRad) for qRT-PCR analysis. U6 or U48 were used as internal controls for RNA levels. All experiments were performed in triplicate, with all samples normalized to the internal controls and relative expression levels calculated using the 2^ΔΔCt method.

[2] = tested on: mature miR-21 in HeLa cells; test: qRT-PCR of mature miR-21 in HeLa cells; format: cell-based; conditions: for decline in levels of mature miR-21: days 4 and 5 of incubation, normalized to no compound; for reduction of all newly synthesized miR-21: worked out from the 20% decrease and miR-21 lifetime of approximately 5 days
Description: FIGS. 12A and 12B compare levels of mature miR-21 in HeLa cells, as measured by standard qRT-PCR after 5 days of incubation in the presence of palbociclib and compounds −0045 (sm1), −0050 (sm3) and −0052 (sm5) (FIG. 12A); and levels of mature miR-21 in HeLa cells were measured by qRT-PCR after 4 days of incubation in the presence of palbociclib (a control) and compounds −0045 (sm1), −0050 (sm3) and −0052 (sm5) (FIG. 12B), normalized to miR-21 levels in the absence of any compound. […] The two panels represent independent duplicates of the same experiment.
HeLa cells have relatively high levels of miR-21, and this cell line was used to evaluate whether addition of the molecules would decrease levels of mature miR-21, as expected for inhibition of miR-21 processing. […] In contrast, compounds −0045, −50 and −52, induce an approximately 20% percent decline in levels of mature miR-21 (FIGS. 12A and 12B; the comparison of FIG. 12A and FIG. 12B provides an indication in the uncertainty of the data). miR-21 is very long lived, with a lifetime of approximately 5 days. […] Similar results were obtained at higher numbers of cells/plate (200 k vs at the start of the experiment), but the experiment could not be extended beyond 2 days because of the very high cell density reached. The observed trends were nonetheless in agreement with the experiments conducted at lower cell density.

| Compound | closing of the apical loop of pre-miR-21 (new imino signals / base pairs) (pre-miR-21) | binding to pre-miR-21 (NMR data) (pre-miR-21) | decrease in mature miR-21 levels [1] | pre-miR-21 levels [1] | decline in levels of mature miR-21 [2] | reduction of all newly synthesized miR-21 [2] |
| --- | --- | --- | --- | --- | --- | --- |
| O=c1[nH]c(Nc2ccc(N3CCNCC3)cn2)nc2cccnc12 [Compound 25] | formation of the putative tandem UG/GU wobble pair in the apical loop; also recorded: emergence of new imino NH chemical shift resonances for the apical loop portion | bind to pre-miR-21 strongly | 40% | reduction in pre-miR-21 levels | approximately 20% | about 60% |
| O=c1[nH]c(Nc2ccc(N3CCNCC3)cn2)nc2cnccc12 [Compound 30] | emergence of new imino NH chemical shift resonances for the apical loop portion | bind to pre-miR-21 strongly | 40% | reduction in pre-miR-21 levels | approximately 20% | about 60% |
